Legend:
[1] = cited from earlier work
rat αβγENaC = test: Amiloride-sensitive whole-cell current in Xenopus oocytes injected with αβγENaC cRNAs; type: cell-based
Experimental: (§1) Human WT-CFTR, human ΔF508-CFTR, and mouse α−, β−and γ ENaC cRNAs were prepared using a cRNA synthesis kit (m-MESSAGE mMACHINE, Ambion Inc, Austin, Tex.) according to the manufacturer's protocol. cRNA concentrations were determined spectroscopically. Oocytes obtained from adult female Xenopus laevis (NASCO Fort Atkinson, Wis.) were defolliculated and maintained at 18° C. in modified Barth's saline (88 mM NaCl, 1 mM KCl, 2.4 mM NaHCO3, 15 mM Hepes pH 7.6, 0.3 mM Ca(NO3)2, 0.41 mM CaCl2, 0.82 MM MgSO4, 10 μg/ml sodium penicillin, 10 μg/ml streptomycin sulfate, 100 μg/ml gentamicin sulfate). […]
(§2) Whole-cell current measurements were made 24 to 48 hours after injection using the two-electrode voltage clamp method (GeneClamp 500 amplifier-Axon Instruments, Foster City, Calif.). […] The whole-cell currents were measured by voltage clamping the oocytes in 20 mV steps between −140 mV to +60 mV adjusted for baseline transmembrane potential. Whole cell currents (I) were digitized at 200 Hz during the voltage steps, recorded directly onto a hard disk and analyzed using pClamp 8 software (Axon Instruments, Foster City, Calif.). […]
The difference in whole-cell currents measured in the absence and presence of 10 μM amiloride was used to define the amiloride-sensitive Na^+current that was mediated by ENaC. […] Whole-cell currents were measured at −100 mV. […]

human WT-CFTR = molecular target: T1, human WT-CFTR (Homo sapiens, UniProt P13569); test: Two-electrode voltage clamp whole-cell current in Xenopus oocytes injected with WT-CFTR cRNA; type: cell-based; conditions: FIG. 9
T1 construct: expressed in transfected cells; host or cells: Xenopus laevis oocytes, cRNA injection (10 ng)
T1 sequence (P13569 whole entry): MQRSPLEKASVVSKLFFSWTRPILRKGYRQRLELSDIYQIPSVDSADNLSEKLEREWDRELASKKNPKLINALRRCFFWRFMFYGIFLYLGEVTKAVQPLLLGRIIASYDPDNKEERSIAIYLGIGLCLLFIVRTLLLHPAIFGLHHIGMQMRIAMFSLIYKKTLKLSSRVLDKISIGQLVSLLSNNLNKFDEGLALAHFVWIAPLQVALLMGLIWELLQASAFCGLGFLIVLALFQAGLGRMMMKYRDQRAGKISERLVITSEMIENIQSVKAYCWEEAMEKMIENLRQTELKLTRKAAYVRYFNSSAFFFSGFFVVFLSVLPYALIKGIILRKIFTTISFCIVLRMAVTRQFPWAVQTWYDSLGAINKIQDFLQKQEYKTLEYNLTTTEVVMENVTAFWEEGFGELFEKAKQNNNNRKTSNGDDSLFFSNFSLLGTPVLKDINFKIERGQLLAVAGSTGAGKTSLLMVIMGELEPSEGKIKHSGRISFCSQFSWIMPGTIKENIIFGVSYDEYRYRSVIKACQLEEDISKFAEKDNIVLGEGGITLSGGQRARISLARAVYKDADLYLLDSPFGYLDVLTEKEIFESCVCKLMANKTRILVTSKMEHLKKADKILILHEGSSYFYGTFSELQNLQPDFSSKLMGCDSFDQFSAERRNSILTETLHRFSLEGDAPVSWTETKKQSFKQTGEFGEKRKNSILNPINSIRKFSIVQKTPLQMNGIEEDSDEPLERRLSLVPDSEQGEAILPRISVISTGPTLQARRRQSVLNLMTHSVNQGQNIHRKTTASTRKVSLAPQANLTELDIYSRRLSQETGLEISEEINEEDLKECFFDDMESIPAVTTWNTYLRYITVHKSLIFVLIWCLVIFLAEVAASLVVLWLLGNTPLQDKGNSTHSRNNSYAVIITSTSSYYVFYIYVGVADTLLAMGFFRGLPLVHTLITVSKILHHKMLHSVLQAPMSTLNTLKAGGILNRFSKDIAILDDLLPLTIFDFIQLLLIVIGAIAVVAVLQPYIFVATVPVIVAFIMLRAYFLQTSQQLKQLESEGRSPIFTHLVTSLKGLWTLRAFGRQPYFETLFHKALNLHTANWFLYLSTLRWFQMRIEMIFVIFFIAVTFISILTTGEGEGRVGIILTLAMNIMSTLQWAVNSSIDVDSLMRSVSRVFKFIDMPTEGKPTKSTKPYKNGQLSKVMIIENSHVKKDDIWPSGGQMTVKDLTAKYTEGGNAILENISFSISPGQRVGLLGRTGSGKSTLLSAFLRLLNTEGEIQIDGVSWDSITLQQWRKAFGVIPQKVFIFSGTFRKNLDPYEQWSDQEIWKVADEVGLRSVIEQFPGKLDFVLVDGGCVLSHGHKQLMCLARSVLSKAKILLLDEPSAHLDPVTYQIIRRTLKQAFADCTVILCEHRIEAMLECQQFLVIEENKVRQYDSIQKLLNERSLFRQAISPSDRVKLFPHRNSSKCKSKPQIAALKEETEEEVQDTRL
Experimental: as §1, §2
(§3) The difference in whole-cell currents measured in the absence and presence of 10 μM amiloride was used to define the amiloride-sensitive Na^+current that was mediated by ENaC. […]

G551D = molecular target: T2, G551D (Homo sapiens, UniProt P13569, G551D); conditions: G551D patients; standard deviation 1.2 mV; cited from earlier work
T2 construct: host or cells: nasal epithelium of CF patients carrying G551D (endogenous protein)
T2 sequence (P13569 whole entry G551D): as the sequence (P13569 whole entry) above, with G551D counted along it

[2] = 16 milligrams per kilogram per day, oral; cited from earlier work
ΔF508-CFTR [3] = molecular target: T3, ΔF508-CFTR (Homo sapiens, UniProt P13569, DEL508-508); conditions: cited from earlier work
T3 sequence (P13569 with tags, fused parts or gaps DEL508-508): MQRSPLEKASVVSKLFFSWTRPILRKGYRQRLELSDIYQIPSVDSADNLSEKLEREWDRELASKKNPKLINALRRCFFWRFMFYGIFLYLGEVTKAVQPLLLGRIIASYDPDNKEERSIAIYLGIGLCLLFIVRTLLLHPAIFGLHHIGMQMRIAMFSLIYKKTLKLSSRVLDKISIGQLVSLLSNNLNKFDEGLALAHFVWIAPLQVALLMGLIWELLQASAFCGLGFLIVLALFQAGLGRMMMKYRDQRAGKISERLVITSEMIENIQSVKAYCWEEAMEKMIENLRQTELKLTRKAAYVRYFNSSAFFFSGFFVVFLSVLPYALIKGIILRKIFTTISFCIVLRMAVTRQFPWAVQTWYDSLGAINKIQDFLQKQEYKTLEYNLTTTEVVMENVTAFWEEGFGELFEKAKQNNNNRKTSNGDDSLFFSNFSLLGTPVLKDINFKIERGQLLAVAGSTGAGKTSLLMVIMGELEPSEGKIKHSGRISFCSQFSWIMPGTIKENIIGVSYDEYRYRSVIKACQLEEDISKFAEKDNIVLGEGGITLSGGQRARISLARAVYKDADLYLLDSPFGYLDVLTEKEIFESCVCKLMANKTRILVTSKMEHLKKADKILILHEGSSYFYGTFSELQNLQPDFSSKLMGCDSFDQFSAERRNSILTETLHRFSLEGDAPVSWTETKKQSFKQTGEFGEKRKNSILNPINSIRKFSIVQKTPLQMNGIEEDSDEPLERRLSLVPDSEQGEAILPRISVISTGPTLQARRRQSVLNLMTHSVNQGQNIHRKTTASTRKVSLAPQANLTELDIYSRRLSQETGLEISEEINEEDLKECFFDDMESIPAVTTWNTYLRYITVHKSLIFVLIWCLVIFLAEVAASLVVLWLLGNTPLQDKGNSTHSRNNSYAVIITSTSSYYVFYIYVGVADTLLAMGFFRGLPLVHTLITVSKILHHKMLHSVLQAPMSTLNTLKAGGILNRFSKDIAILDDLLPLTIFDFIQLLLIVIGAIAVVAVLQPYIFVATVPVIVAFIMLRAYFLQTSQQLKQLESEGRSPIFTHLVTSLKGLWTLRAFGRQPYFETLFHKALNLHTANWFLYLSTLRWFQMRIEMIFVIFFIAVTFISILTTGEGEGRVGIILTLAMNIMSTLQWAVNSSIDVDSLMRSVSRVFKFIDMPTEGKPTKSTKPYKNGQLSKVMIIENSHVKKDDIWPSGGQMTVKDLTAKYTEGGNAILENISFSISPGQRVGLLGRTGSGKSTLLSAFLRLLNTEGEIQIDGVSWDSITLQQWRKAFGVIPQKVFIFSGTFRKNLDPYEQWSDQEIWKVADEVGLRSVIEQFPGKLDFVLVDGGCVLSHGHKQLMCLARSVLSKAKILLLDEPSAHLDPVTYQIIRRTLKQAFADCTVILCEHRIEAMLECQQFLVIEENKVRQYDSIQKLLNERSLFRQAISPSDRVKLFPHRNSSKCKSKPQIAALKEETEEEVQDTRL

ΔF508-CFTR [4] = molecular target: T3, ΔF508-CFTR; test: Two-electrode voltage clamp whole-cell current in Xenopus oocytes injected with ΔF508-CFTR cRNA; type: cell-based; design: expressed in transfected cells; host or cells: Xenopus laevis oocytes, cRNA injection (10 ng); conditions: −100 mV, FIG. 8
Experimental: as §1, §2, §3

O=C(O)CCCc1ccccc1 [4PBA, 4-phenylbutyrate]
commonly reported side effects in chronic therapy ([1]; FDA approved use, urea cycle disorders, 20 grams per day oral): mild stomach upset and an occasional bad taste in the mouth | side effects related to 4PBA therapy during trial ([1]; pilot CF trial, 19 grams per day, one week): no significant side effects

N=C(N)NC(=O)c1nc(Cl)c(N)nc1N [amiloride]
inhibition of whole-cell current by amiloride (rat αβγENaC; 10 μM amiloride, oocytes injected with αβγENaC): A large fraction of the current can be inhibited

O=c1c(-c2ccc(O)cc2)coc2cc(O)cc(O)c12 [genistein]
WT-CFTR whole-cell current after forskolin/IBMX plus genistein (human WT-CFTR; 10 μM forskolin/100 μM IBMX/50 μM genistein): 2.57±0.45 μA | fold increase of forskolin/IBMX-stimulated WT-CFTR current by addition of genistein (human WT-CFTR; 50 μM genistein, −100 mV): 2 fold | effect on amiloride-sensitive current of genistein alone or added before forskolin/IBMX (rat αβγENaC; ENaC alone, unpublished data): decreased | average repolarization of the NPD during genistein perfusion (G551D): 2.4 mV | side effects in Phase I clinical trials [2]: no side effects noted | enhancement of cAMP-dependent activation of ΔF508-CFTR (ΔF508-CFTR [3]): ≤ 20 fold | activation of ΔF508-CFTR by the compound itself (ΔF508-CFTR [3]; without cAMP stimulation): does not activate ΔF508-CFTR by itself | ΔF508-CFTR-mediated whole-cell current after forskolin/IBMX/genistein (ΔF508-CFTR [4]; 10 μM forskolin/100 μM IBMX/50 μM genistein, ΔF508-CFTR alone): 1.82±0.4 μA | fold increase of forskolin/IBMX-stimulated ΔF508-CFTR-mediated current by addition of genistein (ΔF508-CFTR [4]; 50 μM genistein added to 10 μM forskolin/100 μM IBMX): 5 fold

Source: patent publication US20020115619A1, “Compositions and methods for treatment of cystic fibrosis” (priority 2000, published 2002)
